“And” between values parts separate entries of the source, which are not always exact repeats. Equal entries are not always repeated.
What was measured:
[1] = test system: lung tumor xenografts; assay: Experiment H327: growth in lung tumor xenografts after dosing with B-RAF inhibitor; format: in vivo, mice; conditions: for Absolute body weight / Relative body weight / Survival time: individual animal; for Relative tumor volume / Absolute tumor volume: (a*b*b)/2: individual tumor
Excerpt: FIGS. 10-18 depict growth in lung tumor xenografts after dosing with GDC-0879.
The data are shown below, and in FIGS. 10-14 for Experiment H331 and FIGS. 15-18 for Experiment H327.

[2] = test system: ERK1/2 phosphorylation in BRAF^V600E primary human xenograft tumors; assay: Pharmacodynamic ERK1/2 phosphorylation immunoblot in primary human xenograft tumors; format: in vivo, mice; conditions: 100 mg/kg, 1 or 8 h following the last dose (days 21-24)
Procedure: In time course pharmacodynamic studies, mice were treated with 100 mg/kg GDC-0879 and scarified at 1 or 8 h following the last dose (days 21-24). Immunoblots of phosphorylated and total ERK1/2 are shown. […] Total ERK1/2 expression was examined in all samples as a loading control.

[3] = test system: C-RAF in A375 (B-RAFV600E) cells transfected with KRASG12D; assay: C-RAF immunoprecipitation: kinase activity and B-RAF heterodimerization; format: cell-based; design: dose or concentration left out as unconfirmed; conditions: A375 transfected with mutant KRASG12D; dosed at 0.1, 1
Procedure: FIGS. 20A, B, C and D depict the importance of the role of active Ras plays in C-RAF activation and phospho-MEK induction by RAF inhibitors. (A) A375 (B-RAFV600E) cells were treated with GDC-0879 or PLX4720 for 1 hour and lysed in hypotonic buffer for membrane fractionation. Both membrane (P100) and cytosolic (S100) fractions were immunoblotted with the indicated antibodies. (B) MeWo cells were transiently transfected with KRASWT or KRASSI7N, treated with GDC-0879 or PLX4720 (at […]) for 1 hour and fractionated into membrane (P100) and cytosolic (S100) fractions. Aliquots of the membrane and cytosolic fractions were immunoblotted with anti-phospho- and anti-total MEK antibodies. (C) RAS-GTP levels were measured from lysates of MeWo (RAS/RAFWT), A375 (B-RAFV600E) and H2122 (KRASMT) cells with a Ras-GTP ELISA protocol using immobilized C-RAF-RBD as bait for capturing RAS-GTP. Relative luminescent units represent RAS detection of an anti-RAS antibody bound to the RBD. RAS-GTP H2122>>Mewo>A375. […] C-RAF was immunoprecipitated from control and inhibitor-treated cells and assayed for protein activity and B-RAF heterodimerization. Total C-RAF levels shown by WB in the immunoprecipitate indicate loading for each lane.

[4] = molecular target: B-Raf^V600E (Homo sapiens, UniProt P15056, V600E); conditions: physiological [ATP]
[5] = H327-2, LXFA 1041/9N4, 100 mg/kg/day po Days 0-20, study day 17, group median n 10
[6] = H327-2, LXFA 1041/9N4, 100 mg/kg/day po Days 0-20, study day 17, group median n 20
[7] = H327-2, LXFA 1041/9N4, 100 mg/kg/day po Days 0-20, study day 17, listed as G-026887
[8] = H327-2, LXFA 1041/9N4, 100 mg/kg/day po Days 0-20, study day 20, group median n 10
[9] = H327-2, LXFA 1041/9N4, 100 mg/kg/day po Days 0-20, study day 20, group median n 20
[10] = H327-2, LXFA 1041/9N4, 100 mg/kg/day po Days 0-20, study day 20, listed as G-026887
[11] = H327-5, LXFA 1041/9N4, 100 mg/kg/day po Day 0, study day 0, group median n 6
[12] = H327-5, LXFA 1041/9N4, 100 mg/kg/day po Day 0, study day 0, listed as G-026887
[13] = H327-6, LXFA 1041/9N4, 100 mg/kg/day po Day 0, study day 0, group median n 3
[14] = H327-6, LXFA 1041/9N4, 100 mg/kg/day po Day 0, study day 0, listed as G-026887

B-Raf^V600E, sequence (P15056 whole entry V600E): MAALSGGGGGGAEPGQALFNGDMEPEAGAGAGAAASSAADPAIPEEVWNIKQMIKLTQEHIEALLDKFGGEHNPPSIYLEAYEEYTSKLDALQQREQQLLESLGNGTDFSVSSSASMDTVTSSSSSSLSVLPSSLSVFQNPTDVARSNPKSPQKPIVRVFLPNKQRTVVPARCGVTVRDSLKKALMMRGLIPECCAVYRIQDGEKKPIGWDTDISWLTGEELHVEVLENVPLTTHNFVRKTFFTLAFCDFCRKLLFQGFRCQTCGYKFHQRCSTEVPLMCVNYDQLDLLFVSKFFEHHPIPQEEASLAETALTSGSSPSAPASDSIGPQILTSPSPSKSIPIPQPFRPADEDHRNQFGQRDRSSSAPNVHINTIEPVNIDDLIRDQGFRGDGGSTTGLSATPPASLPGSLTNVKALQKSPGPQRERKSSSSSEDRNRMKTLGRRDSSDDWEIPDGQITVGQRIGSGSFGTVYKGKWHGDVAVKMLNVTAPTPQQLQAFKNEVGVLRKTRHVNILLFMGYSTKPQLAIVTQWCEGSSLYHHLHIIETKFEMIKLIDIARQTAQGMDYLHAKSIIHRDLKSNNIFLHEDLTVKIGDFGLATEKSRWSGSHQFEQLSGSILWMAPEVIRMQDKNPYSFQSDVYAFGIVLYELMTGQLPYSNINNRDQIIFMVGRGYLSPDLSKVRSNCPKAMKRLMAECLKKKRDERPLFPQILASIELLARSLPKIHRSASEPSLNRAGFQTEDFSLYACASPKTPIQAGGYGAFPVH

In the case of `OCCn1cc(-c2ccc3c(c2)CC/C3=N\O)c(-c2ccncc2)n1` [GDC-0879, 2-{4-[(1E)-1-(hydroxyimino)-2,3-dihydro-1H-inden-5-yl]-3-(pyridine-4-yl)-1H-pyrazol-1-yl}ethan-1-ol], the “Absolute body weight, Median” value [1, 5] is reported as 25.7 g, the “Relative body weight, Median” value [1, 5] is reported as 102.7% and the “Absolute tumor volume: (a*b*b)/2, Median” value [1, 6] is reported as 789.5 mm3. For the same compound, the “Relative tumor volume, Median” value [1, 6] was 900.4%, the Absolute body weight [1, 7] was 24.8 g and 30.3 g and 25.1 g and 25.0 g and 24.7 g and 26.2 g and 31.9 g and 31.1 g and 26.4 g and 22.7 g and the Relative body weight [1, 7] was 97.6% and 105.9% and 102.4% and 102.0% and 102.9% and 104.4% and 107.0% and 98.7% and 105.6% and 96.2%. For the same compound, the Relative tumor volume [1, 7] was 1372.2% and 1073.6% and 869.4% and 770.2% and 1242.1% and 1093.2% and 1915.9% and 1727.1% and 932.7% and 931.4% and 937.2% and 831.6% and 856.0% and 746.4%, the “Absolute body weight, Median” value [1, 8] was 26.9 g and the “Relative body weight, Median” value [1, 8] was 108.0%. For the same compound, the “Absolute tumor volume: (a*b*b)/2, Median” value [1, 9] was 928.6 mm3, the “Relative tumor volume, Median” value [1, 9] was 1023.2% and the Absolute body weight [1, 10] was 25.4 g and 31.4 g and 25.8 g and 26.3 g and 26.1 g and 28.3 g and 33.2 g and 32.4 g and 27.4 g and 23.1 g. The Relative body weight [1, 10] was 100.0% and 109.8% and 105.3% and 107.3% and 108.8% and 112.7% and 111.4% and 102.9% and 109.6% and 97.9%, the Relative tumor volume [1, 10] was 1795.5% and 1109.8% and 1056.9% and 872.2% and 1346.4% and 1155.4% and 2275.4% and 1830.4% and 1070.4% and 1264.0% and 971.2% and 860.0% and 980.4% and 989.5% and the “Absolute tumor volume: (a*b*b)/2” value ([1]; H327-2, LXFA 1041/9N4 Lung, adeno, 100 mg/kg/day po Days 0-20, study day 0, listed as G-026887, 100 mg/kg/day) was 47.6 mm3 and 100.9 mm3 and 90.8 mm3 (2×) and 111.6 mm3 and 68.8 mm3 and 57.6 mm3 and 62.5 mm3 and 84.7 mm3 and 50.6 mm3 and 210.8 mm3 and 117.2 mm3 and 139.4 mm3. For the same compound, the “Absolute tumor volume: (a*b*b)/2” value ([1]; H327-2, LXFA 1041/9N4 Lung, adeno, 100 mg/kg/day po Days 0-20, study day 3, listed as G-026887, 100 mg/kg/day) was 92.3 mm3 and 210.8 mm3 and 140.4 mm3 and 209.5 mm3 and 139.3 mm3 and 90.8 mm3 and 68.8 mm3 and 145.4 mm3 and 117.0 mm3 and 98.3 mm3 and 292.8 mm3 and 201.6 mm3 and 249.4 mm3, the “Absolute tumor volume: (a*b*b)/2” value ([1]; H327-2, LXFA 1041/9N4 Lung, adeno, 100 mg/kg/day po Days 0-20, study day 7, listed as G-026887, 100 mg/kg/day) was 215.1 mm3 and 332.8 mm3 and 272.8 mm3 and 291.2 mm3 and 258.8 mm3 and 147.9 mm3 and 212.5 mm3 and 294.4 mm3 and 197.0 mm3 and 126.0 mm3 and 470.6 mm3 and 344.4 mm3 and 392.9 mm3 and the “Absolute tumor volume: (a*b*b)/2” value ([1]; H327-2, LXFA 1041/9N4 Lung, adeno, 100 mg/kg/day po Days 0-20, study day 10, listed as G-026887, 100 mg/kg/day) was 279.3 mm3 and 491.9 mm3 and 461.7 mm3 and 420.1 mm3 and 284.6 mm3 and 237.2 mm3 and 326.4 mm3 and 510.3 mm3 and 274.4 mm3 and 173.2 mm3 and 701.8 mm3 and 451.3 mm3 and 546.2 mm3. The “Absolute tumor volume: (a*b*b)/2” value ([1]; H327-2, LXFA 1041/9N4 Lung, adeno, 100 mg/kg/day po Days 0-20, study day 14, listed as G-026887, 100 mg/kg/day) was 458.8 mm3 and 819.3 mm3 and 538.6 mm3 and 575.5 mm3 and 510.9 mm3 and 401.6 mm3 and 672.9 mm3 and 1044.8 mm3 and 426.3 mm3 and 312.1 mm3 and 1321.4 mm3 and 613.8 mm3 and 1022.5 mm3, the “Absolute tumor volume: (a*b*b)/2” value ([1]; H327-2, LXFA 1041/9N4 Lung, adeno, 100 mg/kg/day po Days 0-20, study day 17, listed as G-026887, 100 mg/kg/day) was 653.0 mm3 and 1083.4 mm3 and 789.0 mm3 and 859.6 mm3 and 853.9 mm3 and 629.7 mm3 and 1197.5 mm3 and 1567.4 mm3 and 790.0 mm3 and 471.5 mm3 and 1975.9 mm3 and 974.7 mm3 and 1193.5 mm3 and the “Absolute tumor volume: (a*b*b)/2” value ([1]; H327-2, LXFA 1041/9N4 Lung, adeno, 100 mg/kg/day po Days 0-20, study day 20, listed as G-026887, 100 mg/kg/day) was 854.4 mm3 and 1120.0 mm3 and 959.2 mm3 and 973.4 mm3 and 925.7 mm3 and 665.5 mm3 and 1422.1 mm3 and 1661.1 mm3 and 906.6 mm3 and 639.9 mm3 and 2047.5 mm3 and 1008.0 mm3 and 1366.9 mm3. The Survival time ([1]; H327-5, LXFA 1041/9N4, 100 mg/kg/day po Day 0) was over 0 days, the “Absolute body weight, Median” value [1, 11] was 25.6 g and the “Absolute tumor volume: (a*b*b)/2, Median” value [1, 11] was 248.1 mm3. The “Relative body weight, Median” value [1, 11] was 100.0%, the “Relative tumor volume, Median” value [1, 11] was 100.0% and the Relative body weight ([1]; H327-5, LXFA 1041/9N4, 100 mg/kg/day po Day 0, study day 0) was 100.0%. For the same compound, the Absolute body weight [1, 12] was 26.3 g and 23.5 g and 24.9 g and 31.1 g and 20.8 g and 27.4 g, the “Absolute tumor volume: (a*b*b)/2” value [1, 12] was 256.0 mm3 and 219.0 mm3 and 423.2 mm3 and 441.1 mm3 and 166.5 mm3 and 240.1 mm3 and the Survival time ([1]; H327-6, LXFA 1041/9N4, 100 mg/kg/day po Day 0) was over 0 days. The “Absolute body weight, Median” value [1, 13] was 27.2 g, the “Absolute tumor volume: (a*b*b)/2, Median” value [1, 13] was 267.7 mm3 and the Absolute body weight [1, 14] was 27.9 g and 27.2 g and 25.2 g. For the same compound, the “Absolute tumor volume: (a*b*b)/2” value [1, 14] was 409.1 mm3 and 250.5 mm3 and 267.7 mm3, the “ERK1/2 phosphorylation in tumors” value [2] was “down-regulated ERK1/2 phosphorylation” and the “B-RAF:C-RAF heterodimers and C-RAF kinase activation” value [3] was “induce B-RAF:C-RAF heterodimers and C-RAF kinase activation”. The “potency in biochemical enzyme assay” value [4] was “maintains effective potency”.
